From patent US20210051963A1, “METHODS AND COMPOSITIONS TO IMPROVE PLANT HEALTH AND/OR PLANT PERFORMANCE” (PLANTRESPONSE BIOTECH, S.L., priority 2017, published 2021)

What was measured:
[1] = system: Sclerotinia sclerotiorum strain CH109; assay: White mold disease index in tomato plants treated with PRBT, 6-HP-2CA or 6-OXO-2CA; assay type: in vivo; settings: for disease index vs untreated inoculated tomato plants: PRBT 0.054 g L-1, 6-HP-2CA 0.1 g/l, 6-OXO-2CA 0.1 g/l, 10 and 14 dpi; for Disease Control (%) / Disease index (10 dpi) / Disease index (15 dpi): inoculated tomato var. Money Maker, PRBT 0.054 g/L, 6-HP-2CA or 6-OXO-2CA 0.1 g/L, 25 ml/plant; for Disease index (10 dpi) / Disease index (15 dpi): score 0-5
Experimental: Tomato plants var. Money Maker were sown on Dec. 13, 2016, distributed in random blocks of 9 plants with 4 replicates (36 plants per treatment) and grown in a standard greenhouse. Treated plants were sprayed on Mar. 6, 2017 with 25 ml/plant at 3 ml/1 (0.054 g L^−1) of PRBT (with surfactant 2:1, v/w, antifoam and biocide) or with 25 ml (0.1 g L^−1) of 6-hydroxypiperidine-2-carboxylic acid (6-HP-2CA), or with 25 ml (0.1 g 1-1) of 6-oxopiperidine-2-carboxylic acid (6-OXO-2CA).
Two days later plants were inoculated with 25 ml/plant of a foliar spray of blended Sclerotinia sclerotiorum strain CH109 mycelium that had been grown to optical density at 600 nm of 0.8. Plants were kept at 100% relative humidity for seven days and then humidity was lowered to 80% for the rest of the experiment. Plants were then evaluated at 10 and 14 days post inoculation (dpi) according to a disease severity index score were 0 corresponds to no symptoms and 5 to a dead plant. No statistically significant differences among treatments with the same letter (LSD method, p=0.05)

[2] = system: Sclerotinia sclerotiorum strain CH109; assay: White mold disease index in pepper plants treated with PRBT or 6-HP-2CA; assay type: in vivo; settings: for Disease index 4 dpi / Disease index 6 dpi: inoculated pepper var. Murano, 10 ml/plant, score 0-4
Experimental: Pepper plants var. Murano were sown on Oct. 20, 2016 and distributed in random blocks of 3 plants with 4 replicates (12 plants per treatment) and grown in a standard greenhouse. PRBT treated plants were sprayed on Nov. 23, 2016 with (0.038 g L^−1) PRBT at 10 ml/plant or with (0.01 g L^−1) 6-hydroxypiperidine-2-carboxylic acid (6-HP-2CA) or with (0.1 g L^−1) 6-HP-2CA or with (0.01 g L^−1) 6-HP-2CA formulated with an adjuvant or with (0.1 g L^−1) 6-HP-2CA (0.01 g L^−1) formulated with an adjuvant at 10 ml/plant. Two days later plants were inoculated with 10 ml/plant of a foliar spray of blended Sclerotinia sclerotiorum strain CH109 mycelium that had been grown to optical density at 600 nm of 1.7. Plants were kept at 100% relative humidity for four days and then humidity was lowered to 80% for the rest of the experiment. Plants were then evaluated 4, and 6 days post inoculation (dpi) according to a disease severity index score were 0 corresponds to no symptoms and 4 to a dead plant. No statistically significant differences among treatments with the same letter (LSD method, p=0.05)

Row | Structure (SMILES) | disease index vs untreated inoculated tomato plants [1] | Disease Control (%) [1] [c %] | Disease index (10 dpi) [1] [b] | Disease index (15 dpi) [1] [b] | disease index vs untreated inoculated pepper plants ([2]; high (0.1 g/L) concentration) | Disease index 4 dpi ([2]; 0.01 g/L) [b] | Disease index 6 dpi ([2]; 0.01 g/L) [b] | Disease index 4 dpi ([2]; 0.1 g/L) [a] | Disease index 6 dpi ([2]; 0.1 g/L) [a]
1 | O=C1CCC[C@H](C(=O)O)N1 (stereo in doubt) [6-OXO-2CA, 6-oxopiperidine-2-carboxylic acid] | significantly lower | 10 | 2.3 | 2.3 |  |  |  |  | 
2 | O=C(O)C1CCCC(O)N1 (stereo not shown) [6-HP-2CA, 6-hydroxypiperidine-2-carboxylic acid] | significantly lower | 11 | 2.2 | 2.2 | significantly lower | 0.9 | 2.3 | 0.2 | 0.5
